Calls of active or inactive are those of the source. The rule behind the calls is not given here.
biological target: Heat shock protein HSP90 (Homo sapiens) (UniProt P07900+P08238); experiment: Binding affinity to human HSP90-N-Middle Domain expressed in BL21 Escherichia coli after 2 hrs using silver staining by Pull down assay

SMILES	Activity
CC(C)C[C@@H]1NC(=O)[C@H](CCCCNC(=O)OCc2ccccc2)NC(=O)[C@H](Cc2ccccc2)NC(=O)[C@@H](Cc2ccccc2)N(C)C(=O)[C@H](CCCCNC(=O)CCOCCOCCOCCOCCNC(=O)CCCC[C@@H]2SC[C@@H]3NC(=O)N[C@@H]32)NC1=O	Active
CC(C)[C@@H]1NC(=O)[C@H](CCCCNC(=O)CCOCCOCCOCCOCCNC(=O)CCCC[C@@H]2SC[C@@H]3NC(=O)N[C@@H]32)NC(=O)[C@H](CCCCNC(=O)OCc2ccccc2)NC(=O)[C@H](Cc2ccccc2)NC(=O)[C@@H](Cc2ccccc2)N(C)C1=O	Active
CC(C)C[C@@H]1NC(=O)[C@H](CCCCNC(=O)OCc2ccccc2)NC(=O)[C@H](CCCCNC(=O)CCOCCOCCOCCOCCNC(=O)CCCC[C@@H]2SC[C@@H]3NC(=O)N[C@@H]32)NC(=O)[C@@H](Cc2ccccc2)N(C)C(=O)[C@H](C(C)C)NC1=O	Active

— ChEMBL document CHEMBL1811842, “Synthesis and evaluation of biotinylated sansalvamide A analogs and their modulation of Hsp90” (Bioorg Med Chem Lett, 2011)
